Series [1] concerns human T lymphoma cell line HUT 78. The series is described as follows: In vitro cytotoxicity assay (MTS), HUT 78. Format: cell-based. To be noted: HuT78, 48 h, DXR equivalent concentration, about two days incubation, read-out: IC50 against HUT 78. The method, then: (§1) On the day prior to starting the assay, cells were fed with fresh tissue culture medium (RPMI 1640+10% FCS for most cell lines, use other media as appropriate). A conjugate test solution was prepared in culture medium, with a concentration that is twice the final desired test concentration. Typically with doxorubicin (DXR) conjugates, a DXR equivalent concentration range of 100 μM down to 0.1 μM, using 1:2 serial dilutions is used. All concentrations are calculated and reported in terms of final DXR concentration (as opposed to total conjugate concentration).
(§2) The cell suspension is prepared at a concentration of 1-2×10^6 cells/Ml in culture medium. To each well of a 96-well, flat-bottom, microtiter plate (Falcon Microtest III assay plates, No. 3872) was added 50 μl of the cell suspension prepared above. A 50 μl of conjugate solution was added to each well of the assay plate. […]
(§3) The following blank and control wells were prepared: Plate Blank=100 μl of tissue culture medium only; cell control=50 μl cell suspension+50 μl tissue culture medium; and conjugate Blanks=50 μl 2× conjugate solution +50 μl tissue culture medium. […] Using a 96-well microplate reader, the absorbance of each well was measured at 490 nm. For each conjugate test concentration, the % cytotoxicity was calculated using the following formula: % Cytotoxicity=(1−[Abs. Conjugate Test Group/Abs. Cell Control])×100.

Series [2] has as its system human ovarian cancer cell line A-2780R. The experiment in a line: In vitro cytotoxicity assay (MTS), A-2780R. As to conditions: DXR equivalent concentration, read-out: IC50 against A-2780R. It is filed as cell-based. As for the experimental part: as §1, §2, §3
A further series has as its system HUT 78 tumor. The series is described as follows: In vivo efficacy, murine model of human cutaneous T-cell lymphoma (HUT 78). The method, then: In vitro cytotoxicity against human T-cell lymphoma cell line HUT 78 and human ovarian cancer cell lines A-2780R, as well as in vitro screening on several fresh human tumor specimens from different types of cancer were evaluated. The in vivo efficacy was determined using murine models for human cutaneous T-cell lymphoma. Free doxorubicin and liposomal doxorubicin (DOXIL®) were used as controls for the experiments. The “WL00” moiety comprises the GFLG peptide (SEQ ID NO 1).
The efficacy of mpPEG-WL00-DXR in vivo was also evaluated. A single dose treatment of 30 mg/kg was used for the conjugate and DOXIL®, whereas 15 mg/kg (equivalent doxorubicin dose) was used for unconjugated DXR. […] The percent tumor growth inhibition at day 15 for CA 1043-136, TM 1192-029-1 and TM 1192-038 was 84, 79 and 84, respectively.
In addition, a DXR conjugate with 8.7% DXR loading (TM 1192-107-1) was evaluated in both human T-lymphoma cell line HUT 78 and ovarian cancer cell line A-2780R animal tumor model. […] It is also worth noting that the conjugate CA 1043-36 was very active after two years of storage as a lyophilized powder at 4° C.

Series [3] relates to human ovarian cancer cell line A-2780R tumor. The series is described as follows: In vivo efficacy, murine tumor model of subcutaneously implanted A-2780R. As to conditions: 30 mg/kg. The method, then:
Efficacy of mpPEG-WL00-DXR conjugate was also compared with DOXIL® in a murine tumor model generated by subcutaneously implanting human ovarian cancer cell line A-2780R. […] At day 21, the tumor growth inhibition in the animal treated with TM 1192-029-1 animal was 92%. The unconjugated DXR at 30 mg/kg gave 70% tumor growth inhibition.

A short description of series [4]: Body distribution of DXR in mice bearing HuT 78 xenografts. As to conditions: 2.5 mg/kg, 72 hours. Format: in vivo, NIH III mice. The method, then:
NIH III mice bearing HuT 78 xenografts were administered with conjugated DXR and free DXR at a dose of 2.5 mg/kg of DXR equivalent. After 72 hours, the mice were sacrificed and tissue samples were prepared for analysis for free or total DXR.
The total amount of DXR was determined after hydrolysis of free and conjugated DXR to generate aglycon. The amount of bound conjugate was computed as the difference between total and free DXR.

Series [5] deals with PC3 human prostate carcinoma cell line. The series is described as follows: EDR assay, PC3 (storage stability of stock solutions). It is filed as cell-based. The method, then:
(§4) The PC3 prostate carcinoma, as well as the MCF7-WT and SK-BR3 breast carcinoma cell lines were obtained from ATCC and maintained in RPMI 1640 (GibcoBRL, Grand Island, N.Y.) supplemented with 10% fetal bovine serum (FBS, Omega Scientific, Tarzana, Calif.), 100 IU/ml penicillin, 100 μg/ml streptomycin, and 2 mM L-glutamine (Irvine Scientific, Irvine, Calif.) (complete growth medium). Cells were harvested with 0.25% trypsin (GibcoBRL) after washing twice with phosphate-buffered saline (PBS, Irvine Scientific), then washed with complete medium, counted and checked for viability using trypan blue. Different passages of the cell line were tested for their resistance to WL68-DXR vs. native doxorubicin to evaluate the stability of WL68-DXR under storage at −70° C. […]
(§5) 103 mg of 20 KD mpPEG-8PA-WL68-DXR (further referred to as WL-68-DXR) was dissolved in 10.3 ml of sterile PBS, aliquoted in plastic 1 ml tubes and kept at −70° C. until analysis. […] Positive controls were determined using at least 2 wells treated with an extremely high dose of cisplatin. […]
(§6) Cells were incubated with drugs under standard culture conditions for five days. […] The radioactivity trapped on the filters was counted with a Beckman scintillation counter. The fraction of surviving cells was determined by comparing ^3H-TdR incorporation in treated (experimental points) and untreated (negative control) wells. […]

For series [6], the system named is MCF7-WT (HER-2 negative) breast carcinoma cell line. The experiment in a line: EDR assay, MCF7-WT. Format: cell-based. To be noted: Homo sapiens, 120 h, 5 days of incubation. The method, then:
as §4, §5, §6

Series [7] relates to SK-BR3 (HER-2 positive) breast carcinoma cell line. The series is described as follows: EDR assay, SK-BR3. As to conditions: Homo sapiens, SK-BR-3, 120 h; 5 days of incubation. It is filed as cell-based. As for the experimental part:
as §4, §5, §6

Series [8] relates to HER-2-negative fresh breast carcinoma specimens. The series is described as follows: EDR assay, HER-2-negative fresh breast carcinoma specimens. It is filed as cell-based. As to conditions: Homo sapiens, nine specimens. The method, then:
(§7) Tumor cells were suspended in 0.12% soft agar in complete medium, and plated at different cell concentrations (typically, 3,000 cells for the cell lines and 15,000 cells per well for fresh tumor specimens) onto a 0.4% agarose underlayer in 24-well plates. Plating cells on agarose underlayers supports the proliferation only of the transformed cells, ensuring that the growth signal stems from the malignant component of the tumor.
(§8) 103 mg of 20 KD mpPEG-8PA-WL68-DXR (further referred to as WL-68-DXR) was dissolved in 10.3 ml of sterile PBS, aliquoted in plastic 1 ml tubes and kept at −70° C. until analysis. The doxorubicin equivalent for the WL68-DXR stock solution was 4.06 μg/ml. […] Positive controls were determined using at least 2 wells treated with an extremely high dose of cisplatin. […]
as §6
(§9) A monoclonal antibody against HER-2 (clone 4E200) was purchased from Neomarkers, Inc. (Fremont, Calif.) and used at 1 μg/ml. Optimal working concentrations and incubation time for the HER-2 antibody have been determined in preliminary experiments. […]

In series [9] the test system is HER-2-positive fresh breast carcinoma specimens. The experiment in a line: EDR assay, HER-2-positive fresh breast carcinoma specimens. Format: cell-based. To be noted: Homo sapiens, read-out: IC50, HER-2-positive group. The method, then:
as §7, §8, §6, §9

For series [10], the target named is T1, HER-2 receptor (human epidermal growth factor receptor-2) (human, UniProt P04626 23-1255).
T1 construct: whole, on cells; Presented on the HER-2-positive SK-Br3 cell line; Raji cells served as the negative control; also called c-erbB-2; neu
The experiment in a line: 125I-labelled peptide binding to SK-Br3 cells in suspension, cell-bound counts (Example 17). As for the experimental part: WL38 was iodinated by using lodo-Gen method described in herein. Unbound ¹²⁵I was removed by ion-exchange chromatography with MP-1 resin, (BIO-RAD AG). SK-Br3 cells were removed from the flask bottom by the cell scraper, suspended, and centrifuged at 500×g for 1 min. The cell pellet was suspended in the binding buffer (50 mM PBS, 30 mM NaN₃, 0.5% BSA, pH 7.4). The cell suspension (100 μl) containing 500,000 cells were placed into a glass tube and incubated with ¹²⁵I-WL38 peptides at various concentrations. Unbound peptide was removed by centrifugation. Cells were dissolved in 1M NaOH, and applied for ¹²⁵I counting. Binding of the WL38 peptide to Raji cell which were used as a negative control was performed in a similar manner. Non-specific binding of the WL38 to A2870/R cells was determined on the background of unlabeled WL3 8 at concentration 100 μM.

Values after ≈ are worked out from the molar mass of the structure shown. Like-named read-outs stand apart in the source and are kept apart here. Where no end group is shown, it is not given here.

`COc1cccc2c1C(=O)c1c(O)c3c(c(O)c1C2=O)C[C@@](O)(C(=O)CO)C[C@@H]3O[C@H]1C[C@H](N)[C@H](O)[C@H](C)O1` [unconjugated DXR, doxorubicin]: the IC50 (in general, the concentration at which inhibition is half-maximal) in series [1] was 2.1 µM; in series [2] it was 14.2 µM; in series [5] (336 h, after two weeks of storage at −70° C., read-out: IC50, PC3, after freezing the stock solution) it was 0.022 µg/mL (≈ 0.0405 µM); in series [5] (read-out: IC50, PC3, before freezing the stock solution) it was 0.027 µg/mL (≈ 0.0497 µM); in series [6], 0.013 ± 0.004 µg/mL (≈ 0.0239 µM); in series [7], 0.03 ± 0.02 µg/mL (≈ 0.0552 µM). Besides, the half-inhibitory concentration (IC50) in series [8] (average, read-out: IC50 (average), HER-2-negative breast carcinomas) is 0.025 ± 0.025 µg/mL (≈ 0.046 µM); in series [8] (read-out: IC50 (span over specimens), HER-2-negative breast carcinomas), 0.004 to 0.083 µg/mL (≈ 0.00736 to 0.153 µM); in series [9], 0.019 ± 0.02 µg/mL (≈ 0.035 µM). Also, the deaths entry in the series with HUT 78 tumor (15 mg/kg dose) was “one death out of four animals”. In the series on HUT 78 tumor (HUT 78 tumor study, 30 mg/kg, study period 21 days), the survival of animals entry was “five out of five animals died within seven days”. Besides, the “mean tumor growth inhibition at day 15” value with HUT 78 tumor (single dose 15 mg/kg (equivalent doxorubicin dose)) worked out at 12%. The same molecule displayed a tumor growth inhibition in [3] of 70%. Further, in series [4], the “DXR per gram in tumor, heart and muscle tissues” value is given as “Approximately equal amounts”.

B1: WL38 peptide (MVKDLSNPSRYL) (peptide)
peptide: MVKDLSNPSRYL
modifications: also: 125I-iodinated, residue not given here
notes: Synthetic HER-2-targeting peptide; also called TT38; 125I-WL38
On to B1, for which the binding result in [10] is listed as “binds”.

The values above are taken from US20030124742A1, “Conjugates targeted to target receptors” (priority 2001, published 2003).
